According to ChEMBL document CHEMBL6083182, “Development of Peptide Paratope Mimics Derived from the Anti-ROR1 Antibody and Long-Acting Peptide-Drug Conjugates for Targeted Cancer Therapy” (J Med Chem, 2024):
Active and inactive are the calls of the source. The rule behind the calls is not given here. Where a SMILES comes first, the peptide text is derived from it. [ ]: non-standard residue; d: D form. The star is where a group is joined. X1 = COc1cccc2c1C(=O)c1c(O)c3c(c(O)c1C2=O)C[C@@](O)(C(=O)CO)C[C@@H]3O[C@H]1C[C@H](NC(=O)OCc2ccc(NC(=O)C(CCCNC(N)=O)NC(=O)C(NC(=O)CCCCCN3C(=O)CC(*)C3=O)C(C)C)cc2)[C@H](O)[C@H](C)O1; C18 diacid = O=C(O)CCCCCCCCCCCCCCCCC(=O)*; AEEA = NCCOCCOCC(=O)O

What was measured:
[1] = molecular target: Inactive tyrosine-protein kinase transmembrane receptor ROR1 (Homo sapiens, UniProt Q01973); experiment: Binding affinity to N-terminal His/GST-tagged recombinant human ROR1 (453 to 783 residues) extracted from baculovirus infected insect cells assessed as dissociation constant by SPR analysis
[2] = Area under the first moment curve in Sprague-Dawley rat at 15 mg/kg, iv measured upto 12 hrs by UPLC-QTOF/MS analysis; format: ADME, organism-based; conditions: in vivo
[3] = Toxicity in BALB/c nude mouse xenografted with human MDA-MB-231 cells assessed as effect on kidney at 5 mg/kg, iv administered once every 3 days for 27 days starting from day 3 by H and E staining based analysis; format: organism-based; conditions: in vivo
[4] = Toxicity in BALB/c nude mouse xenografted with human MDA-MB-231 cells assessed as effect on heart at 5 mg/kg, iv administered once every 3 days for 27 days starting from day 3 by H and E staining based analysis; format: organism-based; conditions: in vivo, 576 h, time 24 day
MCF7 = experiment: Cytotoxicity against ROR1-negative human MCF7 cells assessed as decrease in cell viability incubated for 24 hrs by CCK-8 assay; format: functional, cell-based; conditions: MCF7, 24 h
[5] = Half life in Sprague-Dawley rat at 15 mg/kg, iv measured upto 12 hrs by UPLC-QTOF/MS analysis; format: ADME, organism-based; conditions: in vivo
MDA-MB-231 [6] = experiment: Induction of apoptosis in human MDA-MB-231 cells assessed as early apoptotic cells at 15 nM incubated for 24 hrs by AnnexinV-FITC/PI staining based flow cytometry (reference value: 0%); format: functional
[7] = Clearance in Sprague-Dawley rat at 15 mg/kg, iv measured upto 12 hrs by UPLC-QTOF/MS analysis; format: ADME, organism-based; conditions: in vivo
SK-HEP1 = experiment: Cytotoxicity against human SK-HEP1 cells assessed as decrease in cell viability incubated for 24 hrs by CCK-8 assay; format: functional, cell-based; conditions: SK-HEP1, 24 h
[8] = Drug uptake in ROR1-negative human MCF7 cells assessed as increase in fluorescence intensity at 10 uM incubated for 2 hrs by Hoechst 33342 staining based confocal fluorescence microscopic analysis; format: ADME, cell-based; conditions: mcf7, 2 h
MDA-MB-231 [9] = experiment: Induction of apoptosis in human MDA-MB-231 cells assessed as viable cells at 15 nM incubated for 24 hrs by AnnexinV-FITC/PI staining based flow cytometry (reference value: 99.9%); format: functional; conditions: read-out: Activity
MDA-MB-231 [10] = experiment: Induction of apoptosis in human MDA-MB-231 cells assessed as late apoptotic cells at 16 nM incubated for 24 hrs by AnnexinV-FITC/PI staining based flow cytometry (reference value: 0.034%); format: functional
MDA-MB-231 [11] = experiment: Induction of apoptosis in human MDA-MB-231 cells at 10 uM incubated for 24 hrs by Annexin V-FITC/PI staining based flow cytometric analysis; format: functional, cell-based
MDA-MB-231 [12] = experiment: Induction of apoptosis in human MDA-MB-231 cells assessed as early apoptotic cells at 16 nM incubated for 24 hrs by AnnexinV-FITC/PI staining based flow cytometry (reference value: 0%); format: functional
[13] = Toxicity in BALB/c nude mouse xenografted with human MDA-MB-231 cells assessed as body weight loss at 5 mg/kg, iv administered once every 3 days for 27 days starting from day 3; format: organism-based; conditions: in vivo, 576 h, time 24 day
[14] = Drug uptake in ROR1-positive human MDA-MB-231 cells cytoplasm assessed as increase in red fluorescence at 10 uM measured after 2 hrs by Hoechst 33342 staining based confocal fluorescence microscopic analysis; format: ADME, subcellular; conditions: mda-mb-231, 2 h
MDA-MB-231 [15] = experiment: Induction of apoptosis in human MDA-MB-231 cells assessed as late apoptotic cells at 15 nM incubated for 24 hrs by AnnexinV-FITC/PI staining based flow cytometry (reference value: 0.034%); format: functional
[16] = Toxicity in BALB/c nude mouse xenografted with human MDA-MB-231 cells assessed as effect on liver at 5 mg/kg, iv administered once every 3 days for 27 days starting from day 3 by H and E staining based analysis; format: organism-based; conditions: in vivo, 576 h, time 24 day
MDA-MB-231 [17] = experiment: Antitumor activity against human MDA-MB-231 cells xenografted in BALB/c nude mouse assessed as reduction in tumor volume at 5 mg/kg, iv measured after first injection starting from day 3 on day 6; format: functional, organism-based; conditions: time 3.0 day
MDA-MB-231 [18] = experiment: Induction of apoptosis in human MDA-MB-231 cells assessed as necrotic cells at 15 nM incubated for 24 hrs by AnnexinV-FITC/PI staining based flow cytometry (reference value: 0.034%); format: functional
[19] = Toxicity in BALB/c nude mouse xenografted with human MDA-MB-231 cells assessed as effect on lung at 5 mg/kg, iv administered once every 3 days for 27 days starting from day 3 by H and E staining based analysis; format: organism-based; conditions: in vivo
[20] = Cytotoxicity against human MCF-10A cells assessed as decrease in cell viability incubated for 24 hrs by CCK-8 assay; format: toxicity, cell-based
[21] = Toxicity in BALB/c nude mouse xenografted with human MDA-MB-231 cells assessed as change in body weight at 5 mg/kg, iv measured after first injection starting from day 3 on day 6; format: organism-based; conditions: in vivo, 72 h, time 3 day
[22] = Elimination rate constant in Sprague-Dawley rat at 15 mg/kg, iv measured upto 12 hrs by UPLC-QTOF/MS analysis; format: ADME, organism-based; conditions: in vivo
[23] = AUC(0 to t) in Sprague-Dawley rat at 15 mg/kg, iv measured upto 12 hrs by UPLC-QTOF/MS analysis; format: ADME, organism-based; conditions: in vivo
MDA-MB-231 [24] = experiment: Antitumor activity against human MDA-MB-231 cells xenografted in BALB/c nude mouse assessed as tumor growth inhibition at 5 mg/kg, iv administered once every 3 days for 27 days starting from day 3; format: functional, organism-based; conditions: time 24.0 day
MDA-MB-231 [25] = experiment: Cytotoxicity against ROR1-positive human MDA-MB-231 cells assessed as decrease in cell viability incubated for 24 hrs by CCK-8 assay; format: functional, cell-based; conditions: MDA-MB-231, 24 h
[26] = AUC(0 to infinity) in Sprague-Dawley rat at 15 mg/kg, iv measured upto 12 hrs by UPLC-QTOF/MS analysis; format: ADME, organism-based; conditions: in vivo
MDA-MB-231 [27] = experiment: Induction of apoptosis in human MDA-MB-231 cells assessed as necrotic cells at 16 nM incubated for 24 hrs by AnnexinV-FITC/PI staining based flow cytometry (reference value: 0.034%); format: functional
MDA-MB-231 [28] = experiment: Induction of apoptosis in human MDA-MB-231 cells assessed as viable cells at 16 nM incubated for 24 hrs by AnnexinV-FITC/PI staining based flow cytometry (reference value: 99.9%); format: functional; conditions: read-out: Activity
[29] = Toxicity in BALB/c nude mouse xenografted in human MDA-MB-231 cells assessed as effect on AST level at 5 mg/kg, iv administered once every 3 days for 27 days starting from day 3; format: organism-based; conditions: in vivo, 576 h, time 24 day
[30] = Toxicity in BALB/c nude mouse xenografted with human MDA-MB-231 cells assessed as effect on spleen at 5 mg/kg, iv administered once every 3 days for 27 days starting from day 3 by H and E staining based analysis; format: organism-based; conditions: in vivo, 576 h, time 24 day
[31] = MRT in Sprague-Dawley rat at 15 mg/kg, iv measured upto 12 hrs by UPLC-QTOF/MS analysis; format: ADME, organism-based; conditions: in vivo
[32] = Toxicity in BALB/c nude mouse xenografted with human MDA-MB-231 cells assessed as effect on ALT level at 5 mg/kg, iv administered once every 3 days for 27 days starting from day 3; format: organism-based; conditions: in vivo, 576 h, time 24 day

Chain of Inactive tyrosine-protein kinase transmembrane receptor ROR1 (Q01973 whole entry, the tested form may be a part): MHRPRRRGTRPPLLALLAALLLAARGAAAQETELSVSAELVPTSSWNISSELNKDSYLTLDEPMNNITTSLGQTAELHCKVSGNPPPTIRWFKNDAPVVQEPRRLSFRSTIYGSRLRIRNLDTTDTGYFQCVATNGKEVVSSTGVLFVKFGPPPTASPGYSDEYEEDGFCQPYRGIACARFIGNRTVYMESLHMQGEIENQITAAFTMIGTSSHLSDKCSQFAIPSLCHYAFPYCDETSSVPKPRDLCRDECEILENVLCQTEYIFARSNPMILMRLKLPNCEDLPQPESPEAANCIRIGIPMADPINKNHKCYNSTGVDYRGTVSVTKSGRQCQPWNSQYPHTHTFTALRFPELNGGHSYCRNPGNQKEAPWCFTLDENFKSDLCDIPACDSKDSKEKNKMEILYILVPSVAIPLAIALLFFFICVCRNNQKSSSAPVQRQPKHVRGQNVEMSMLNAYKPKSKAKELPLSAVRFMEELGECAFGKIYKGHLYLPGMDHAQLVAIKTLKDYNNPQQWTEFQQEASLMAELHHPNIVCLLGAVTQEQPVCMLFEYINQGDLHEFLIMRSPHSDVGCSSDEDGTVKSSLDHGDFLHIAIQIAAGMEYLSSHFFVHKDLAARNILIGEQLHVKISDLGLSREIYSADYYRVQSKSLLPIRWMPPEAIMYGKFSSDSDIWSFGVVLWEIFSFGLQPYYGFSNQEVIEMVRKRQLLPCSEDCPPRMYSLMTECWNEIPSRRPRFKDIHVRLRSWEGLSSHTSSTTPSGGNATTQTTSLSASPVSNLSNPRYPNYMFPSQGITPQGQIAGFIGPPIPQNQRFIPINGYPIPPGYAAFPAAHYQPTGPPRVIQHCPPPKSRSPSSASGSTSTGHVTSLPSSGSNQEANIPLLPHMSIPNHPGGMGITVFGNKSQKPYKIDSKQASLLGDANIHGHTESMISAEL

In the case of `CC[C@H](C)[C@H](NC(=O)[C@H](CC(=O)O)NC(=O)[C@H](CO)NC(=O)CNC(=O)[C@H](CSC1CC(=O)N(CCCCCC(=O)NC(C(=O)NC(CCCNC(N)=O)C(=O)Nc2ccc(COC(=O)N[C@H]3C[C@H](O[C@H]4C[C@](O)(C(=O)CO)Cc5c(O)c6c(c(O)c54)C(=O)c4c(OC)cccc4C6=O)O[C@@H](C)[C@H]3O)cc2)C(C)C)C1=O)NC(=O)CNC(=O)[C@H](CCCCN)NC(=O)COCCOCCNC(=O)COCCOCCNC(=O)[C@H](CCC(=O)O)NC(=O)CCCCCCCCCCCCCCCCC(=O)O)C(=O)N[C@@H](CC(N)=O)C(=O)N[C@@H](CC(=O)O)C(=O)N[C@@H](CCCNC(=N)N)C(=O)N[C@@H](CCC(N)=O)C(=O)N[C@H](C(=O)N1CCC[C@H]1C(=O)NCC(=O)N[C@@H](Cc1ccc(O)cc1)C(=O)N[C@@H](CO)C(=O)N[C@H](C(=O)N[C@@H](Cc1ccc(O)cc1)C(=O)N[C@@H](Cc1c[nH]c2ccccc12)C(=O)NCC(=O)N[C@@H](CC(=O)O)C(=O)N[C@@H](Cc1ccccc1)C(N)=O)[C@@H](C)O)[C@@H](C)CC` (some centres undefined) ({C18 diacid}-E[AEEA][AEEA]KGC(X1)GSDINDRQIPGYSTYWGDF-NH2), the Kd [1] is reported as 0.00172 µM, the AUMC [2] is reported as 217552.348 ng/mL.hr^2 and the Activity [3] is reported as “Non-toxic”. The Activity [4] was “Non-toxic”, the IC50 (MCF7) was 10.5 µM and the half-life [5] was 2.62 h. For the same compound, the Activity (MDA-MB-231 [6]) was 13.3%, the CL [7] was 0.001 mg/ng/mL/h and the IC50 (SK-HEP1) was 0.576 µM. The Drug uptake [8] was “Not_active”, the viability at 0.015 µM (MDA-MB-231 [9]) was 80.1% and the Activity (MDA-MB-231 [10]) was 9.51%. For the same compound, the Activity (MDA-MB-231 [11]) was “Active; Exhibited Apoptosis Primarily In Early Stage”, the Activity (MDA-MB-231 [12]) was 39.7% and the Activity [13] was “Non-toxic”. The Drug uptake [14] was “Active”, the Activity (MDA-MB-231 [15]) was 5.59% and the Activity [16] was “Non-toxic”. The Activity (MDA-MB-231 [17]) was “inactive”, the Activity (MDA-MB-231 [18]) was 1.02% and the Activity [19] was “Non-toxic”. For the same compound, the IC50 at 24 h [20] was 23.2 µM, the Activity [21] was “Non-toxic” and the k el at 12 h [22] was 8.92e-05 s⁻¹. The AUCt [23] was 55100 ng·h/mL, the Activity (MDA-MB-231 [24]) was “Active” and the IC50 (MDA-MB-231 [25]) was 0.015 µM. It also gave an AUC(0-inf) [26] of 57800 ng·h/mL, an Activity (MDA-MB-231 [27]) of 0.5% and a viability at 0.016 µM (MDA-MB-231 [28]) of 50.3%. The Activity [29] was “Toxic”, the Activity [30] was “Non-toxic” and the MRT [31] was 3.78 h. For the same compound, the Activity [32] was “Toxic”.
